These results are taken from patent publication US20080221161A1, “HETEROCYCLIC MODULATORS OF TGR5 FOR TREATMENT OF DISEASE” (KALYPSYS, INC., priority 2007, published 2008).

Molecules are shown by their SMILES. Where only a bound is given, the exact number is not on record here.

The assay deals with T1, human TGR5 (Homo sapiens, UniProt Q8TDU6).
T1 construct: expressed in transfected cells; host or cells: HEK-293 cells, stably transfected (pcDNA 3.1, Fugene6, geneticin selection)
T1 sequence (Q8TDU6 1-330): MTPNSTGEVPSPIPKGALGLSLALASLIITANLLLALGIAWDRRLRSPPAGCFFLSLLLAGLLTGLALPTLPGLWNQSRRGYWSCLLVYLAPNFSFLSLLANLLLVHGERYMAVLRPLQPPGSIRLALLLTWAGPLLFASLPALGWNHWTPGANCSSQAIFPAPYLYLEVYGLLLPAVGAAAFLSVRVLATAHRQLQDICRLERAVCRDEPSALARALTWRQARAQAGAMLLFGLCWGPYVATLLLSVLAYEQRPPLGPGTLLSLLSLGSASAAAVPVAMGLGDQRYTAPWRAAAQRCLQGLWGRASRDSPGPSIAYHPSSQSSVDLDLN
Put plainly: cAMP production assay in HEK293-TGR5 cells. The assay is classed as cell-based. The settings on record: HEK293 cells stably expressing human TGR5; 30 minutes stimulation; LANCE cAMP TR-FRET; read-out: cAMP Production in 293-TGR5 Cells EC50.
In the case of `Oc1ccc2cc(CNCCc3ccc(Br)cc3)c(-c3ccncc3)nc2c1` [Example 96, 3-((4-Bromophenethylamino)methyl)-2-(pyridin-4-yl)quinolin-7-ol], the EC50 was less than 10 µM. For the compound `Oc1ccc2cc(CNCCc3ccc(Br)cc3)c(-c3ccccc3)nc2c1` [Example 100, 3-((4-Bromophenethylamino)methyl)-2-phenylquinolin-7-ol], the concentration for a half-maximal effect (EC50) is less than 10 µM. Turning to `Oc1ccc2cc(CNCCc3ccc(Cl)c(Cl)c3)c(-c3ccsc3)nc2c1` [Example 101, 3-((3,4-Dichlorophenethylamino)methyl)-2-(thiophen-3-yl)quinolin-7-ol], the EC50 was less than 10 µM.

With `COc1ccc2cc(CCNCCc3ccc(Br)cc3)c(-c3ccsc3)nc2c1` [Example 102, N-(4-bromophenethyl)-2-(7-methoxy-2-(thiophen-3-yl)quinolin-3-yl)ethanamine], the EC50 is more than 10 µM. Under `Oc1ccc2cc(CNCCc3ccc(Br)cc3)c(-c3ccco3)nc2c1` [Example 103, 3-((4-Bromophenethylamino)methyl)-2-(furan-2-yl)quinolin-7-ol] stands more than 10 µM. In the case of `Oc1ccc2cc(CCNCCc3ccc(Br)cc3)c(-c3ccsc3)nc2c1` [Example 104, 3-(2-(4-Bromophenethylamino)ethyl)-2-(thiophen-3-yl)quinolin-7-ol], the EC50 was more than 10 µM. As for `Oc1ccc2nc(-c3ccsc3)c(CNCCc3ccc(Cl)cc3)cc2c1` [Example 105, 3-((4-Chlorophenethylamino)methyl)-2-(thiophen-3-yl)quinolin-6-ol], the half-maximal effective concentration (EC50) is less than 10 µM. As for `COc1ccc2cc(CCNCc3ccc(C(F)(F)F)cc3)c(-c3ccsc3)nc2c1` [Example 106, 2-(7-Methoxy-2-(thiophen-3-yl)quinolin-3-yl)-N-(4-(trifluoromethyl)benzyl)ethanamine], the EC50 was more than 10 µM. Under `Oc1ccc2cc(CCNCc3ccc(C(F)(F)F)cc3)c(-c3ccsc3)nc2c1` [Example 107, 2-(Thiophen-3-yl)-3-(2-(4-(trifluoromethyl)benzylamino)ethyl)quinolin-7-ol] stands more than 10 µM. As for `Oc1ccc2cc(CNCCc3ccc(Br)cc3)c(-c3cccs3)nc2c1` [Example 108, 3-((4-Bromophenethylamino)methyl)-2-(thiophen-2-yl)quinolin-7-ol], the EC50 was more than 10 µM.

For the compound `Oc1ccc2cc(CNCCc3ccc(Br)cc3)c(-c3ccoc3)nc2c1` [Example 109, 3-((4-Bromophenethylamino)methyl)-2-(furan-3-yl)quinolin-7-ol], the EC50 is more than 10 µM. On to `Oc1ccc2nc(-c3ccsc3)c(CNCc3ccc(C(F)(F)F)cc3)cc2c1` [Example 111, 2-(Thiophen-3-yl)-3-((4-(trifluoromethyl)benzylamino)methyl)quinolin-6-ol], for which the EC50 was more than 10 µM.

Consider `Sc1ccc2cc(CNCCc3ccc(Br)cc3)c(-c3ccsc3)nc2c1` [Example 114, 3-((4-Bromophenethylamino)methyl)-2-(thiophen-3-yl)quinoline-7-thiol], for which the EC50 was less than 10 µM. Take `COc1ccc2cc(NCc3ccc(C(F)(F)F)cc3)c(-c3ccsc3)nc2c1` [Example 115, 7-Methoxy-2-(thiophen-3-yl)-N-(4-(trifluoromethyl)benzyl)quinolin-3-amine]: the EC50 was more than 10 µM. For `COc1ccc2cc(NCCc3ccc(Br)cc3)c(-c3ccsc3)nc2c1` [Example 116, N-(4-Bromophenethyl)-7-methoxy-2-(thiophen-3-yl)quinolin-3-amine], the EC50 is less than 10 µM. As to `COc1ccc2cc(CNCCc3ccc(Cl)cc3)c(-c3ccoc3)nc2c1` [Example 117, 2-(4-Chlorophenyl)-N-((2-(furan-3-yl)-7-methoxyquinolin-3-yl)methyl)ethanamine], the EC50 is more than 10 µM.

For the compound `Oc1ccc2cc(CNCCc3ccc(Cl)cc3)c(-c3ccoc3)nc2c1` [Example 118, 3-((4-Chlorophenethylamino)methyl)-2-(furan-3-yl)quinolin-7-ol], the EC50 is more than 10 µM.
